Laboratory results taken from ChEMBL document CHEMBL4840379, “RIBOTACs: Small Molecules Selectively Destroy Cancer-Associated RNA” (ACS Med Chem Lett, 2021).
Activity calls are given as the source filed them. The calls are words filed in the database; no cut-off is given here.

Assays:
[1] = Drug uptake in human MDA-MB-231 cells assessed as compound level at 500 nM incubated for 24 hrs; format: ADME, cell-based; conditions: mda-mb-231, 24 h, 0.5 µM
[2] = tested on: microRNA 21; assay: RIBOTAC activity at Pre-miR-21 RNA/RNase L in human MDA-MB-231 cells assessed as decrease in pre-miR-21 level by measuring cleaved pre-miR-21 level at 500 nM incubated for 24 hrs […]; format: cell-based
[3] = tested on: A-375; assay: Antiinvasive activity in human A-375 cells assessed as decrease in pre-miR-21 overexpression induced invasion at 500 nM incubated for 24 hrs […]; format: functional, cell-based
[4] = tested on: A549; assay: Antiinvasive activity in human A549 cells assessed as decrease in pre-miR-21 overexpression induced invasion at 500 nM incubated for 24 hrs […]; format: functional, cell-based
[5] = Turnovers, ratio of RIBOTAC activity at Pre-miR-21 RNA/RNase L in human MDA-MB-231 cells assessed as decrease in pre-miR-21 level by measuring cleaved pre-miR-21 level at 500 nM incubated for 24 hrs […] to drug concentration in human MDA-MB-231 cells; format: functional

For `CCCN(CC(=O)N(CCC)CC(=O)N(CCC)CC(=O)N(CC(=O)NCCOCCOCCOCCOc1ccc(/C=C2\SC(Nc3ccccc3)=C(C(=O)OCC)C2=O)cc1O)Cc1cn(CCCNC(=O)CCCOc2ccc(-c3nc4ccc(-c5ccc(N6CCN(C)CC6)cc5)cc4[nH]3)cc2)nn1)C(=O)CN(Cc1cn(CCCNC(=O)CCCOc2ccc(-c3nc4cc(-c5ccc(N6CCN(C)CC6)cc5)ccc4[nH]3)cc2)nn1)C(C)=O`, which Drug uptake [1] is on record?
Its Drug uptake is 2.6 pmol.

And the Activity [2]?
Its Activity is 68 pmol.

And the Activity [3]?
Its Activity is “Active”.

What about the Activity [4] of the same compound?
Its Activity is “Active”.

And the Ratio [5]?
Its Ratio is 26.
